Laboratory results published in patent publication US4931437A, “8-azaxanthine derivatives, and pharmaceutical compositions containing them” (Malesci Istituto Farmacobiologico S.p.A., priority 1986, dated 1990).
Like-named read-outs stand apart in the source and are kept apart here.

Legend:
bronchospasm = test: Antibronchospastic activity (aerosol ovalbumin, sensitized guinea pigs, oral); assay type: in vivo, guinea pig; conditions: for Oral antibronchospastic activity (aerosol ovalbumin guinea-pig) A.U.C. 0 → 3h Index: ratio between equieffective doses of theophylline and tested compound, AUC of % inhibition 0-3 h
Protocol: Fasted (16 h) male and female guinea pigs were sensitized by ovalbumin (25 mg/Kg. s.c. and 25 mg/Kg. i.p.) (Herxheimer and Stresemann--Arch. It. Pharmacodyn. Ther. 125.126; 1960). After two weeks, animals were challenged, by an aerosol of 0.5% ovalbumin recording the latency time (T1) of the first bronchospasm. A week later, the test was repeated in the same animals 1-3 hours after drug administration (T2). % of inhibition was determined as [formula] where T1 was control latency time, T2 was latency time after drug administration. […] The area under curve (AUC) expressing the % inhibition plotted toward time (0-3 h) after drug dosing, was calculated.

[1] = test system: heart rate and blood pressure; conditions: in vivo, po
Protocol: Fasted (16 h) normotensive male Wistar rats weighing 300-380 g. were used. The animals were prewarmed by means of infrared lamp for 15 min. before recording blood pressure and heart rate with the tale-cuff method (Maffii G. e Coll.--Arch. It. Sci. Farm. 12, 3; 1962). Recording were performed before and 30'-90'--3 h after oral drug administration. […] The % increase in heart rate was plotted against the log dose. […] In table 2 the average value of the indexes was reported.

[2] = Acute toxicity (oral LD50); set-up: species or system male Swiss mice; conditions: in vivo, mouse, deaths in ten days, Litchfield and Wilcoxon, limits in parentheses, max dose generally 500 mg/Kg, read-out: DL/50 (mouse os)
Protocol: LD50 was calculated according to Litchfield and Wilcoxon method (J. Pharm. Expt. Ther. 96, 99; 1949). The maximum dose administered was generally 500 mg/Kg.

[3] = Effects on CNS: sleeping time following chlordiazepoxide (CDO) treatment; conditions: mouse, in vivo, po
Protocol: (§1) Fasted (20 h) male Swiss mice (20 g b.w.) received orally the compounds 1 h before cardiazole (CZ) or chlordiazepoxide (CDO) administration.
(§2) In the untreated animals, CDO 100 mg/Kg i.p. induced sleep lasting 20-30 min. Sleeping time was defined as the time elapsing from the loss to the recovery of the righting reflex. Pretreated animals were observed up to a maximum of 6 h.

[4] = Effects on CNS: cardiazole (CZ) induced convulsions; conditions: mouse, in vivo, po
Protocol: as §1
CZ was injected i.p. in a fully convulsive dose which produced death in about 10% of animals (60-100 mg/Kg.). Appropriate dose was determined before each experimental session.
as §2

Compound | Oral antibronchospastic activity (aerosol ovalbumin guinea-pig) A.U.C. 0 → 3h Index (bronchospasm) | Tachycardic effects (rat os) Index [1] | LD50 at 240 h [2] | further results
CCCn1c(=O)c2c(nnn2CCN(CC)CC)n(-c2ccccc2)c1=O [MX8257] | 1,8 | 0 | > 1350 µmol/kg | 
CCCn1c(=O)c2nn(CCN(CC)CC)nc2n(-c2ccccc2)c1=O [MX8258] | 1,6 | 0 | > 1350 µmol/kg | 
CCCn1c(=O)c2c(nnn2CCN(C)C)n(CC(C)CC)c1=O (centres unmarked) [MX8271] | 1,9 | 0 | > 1480 µmol/kg | 
CCCn1c(=O)c2nn(CCN(C)C)nc2n(CC(C)CC)c1=O (centres unmarked) [MX8272] | 2,1 | 0 | 1370 µmol/kg | 
CCCn1c(=O)c2c(nnn2CCN2CCCCC2)n(-c2ccccc2)c1=O [MX82103] | 1,7 | 0 | 910 µmol/kg | 
CCCn1c(=O)c2nn(CCN3CCCCC3)nc2n(-c2ccccc2)c1=O [MX82104] | 2,1 | 0 | 1310 µmol/kg | 
CCCn1c(=O)c2c(nnn2CCN2CCOCC2)n(-c2ccccc2)c1=O [MX82105, 1-n-propyl-3-phenyl-7-(2-morpholinoethyl)-8-azaxanthine] | 2,4 | 0 | > 1300 µmol/kg | 
CCCn1c(=O)c2nn(CCN3CCOCC3)nc2n(-c2ccccc2)c1=O [MX82106, 1-n-propyl-3-phenyl-8-(2-morpholinoethyl)-8-azaxanthine] | 2,9 | 0 | > 1300 µmol/kg | 
CCC(C)Cn1c(=O)[nH]c(=O)c2c1nnn2CCN(CC)CC (centres unmarked) [MX82108] | 1,3 | 0 | > 1550 µmol/kg | 
CCC(C)Cn1c(=O)[nH]c(=O)c2nn(CCN(CC)CC)nc21 (centres unmarked) [MX82109] | 1,1 | 0,3 | > 1550 µmol/kg | 
Cn1c(=O)c2[nH]cnc2n(C)c1=O [THEOPHYLLINE, 1.3-dimethylxanthine, reference compound] |  |  |  | ED50 (bronchospasm; Cavia porcellus, po, guinea pig, 0.5% ovalbumin aerosol, read-out: ED50, inhibition of bronchoconstriction): 250 µmol/kg; blood pressure effect ([1]; rat): slight hypotension; heart rate effect ([1]; rat): marked dose-dependent tachycardia; dosage producing a 30% increase in heart rate ([1]; rat, 30 min): 0.21 mmol/kg; dosage producing a 30% increase in heart rate ([1]; rat, 90 min): 0.36 mmol/kg; dosage producing a 30% increase in heart rate ([1]; rat, 180 min): 0.57 mmol/kg; ED50 [3]: 75 µmol/kg; ED50 [4]: 150 µmol/kg
